Experimental data taken from PubChem BioAssay AID2060884 (Molecular Pharmacology Branch, DTP, NCI, 2025).
pIC50: −log10 of the molar value.

Tested on: NCI-H929 complex spheroids, viability % test/control
Assay: Anticancer human tumor NCI-H929 cell line growth inhibition [RAS];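 note: compound exposure lasted seven days before viability was read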;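 for viability, T/C: 100% = DMSO vehicle control viability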
Conditions: for viability, T/C: stronger effect = lower value; for pIC50: curve of first compound; active = viability on the fitted dose curve at most 10% of control; inactive = the rest
In short: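 Tumour cells grown as complex spheroids with HUVEC endothelial cells and mesenchymal stem cells, treated with RAS pathway inhibitor combinations. Each agent spans half-log steps from near clinical Cmax, or 10 microM where Cmax is unknown.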

[1] = second compound 0.0316 µM, first compound 0.0316 µM
[2] = second compound 0.0316 µM, first compound 0.1 µM
[3] = second compound 0.0316 µM, first compound 0.316 µM
[4] = second compound 0.0316 µM, first compound 1 µM
[5] = second compound 0.0316 µM, first compound 3.16 µM
[6] = second compound 0.0316 µM, first compound 10 µM
[7] = second compound 0.1 µM, first compound 0.0316 µM
[8] = second compound 0.1 µM, first compound 0.1 µM
[9] = second compound 0.1 µM, first compound 0.316 µM
[10] = second compound 0.1 µM, first compound 1 µM
[11] = second compound 0.1 µM, first compound 3.16 µM
[12] = second compound 0.1 µM, first compound 10 µM
[13] = second compound 0.316 µM, first compound 0.0316 µM
[14] = second compound 0.316 µM, first compound 0.1 µM
[15] = second compound 0.316 µM, first compound 0.316 µM
[16] = second compound 0.316 µM, first compound 1 µM
[17] = second compound 0.316 µM, first compound 3.16 µM
[18] = second compound 0.316 µM, first compound 10 µM
[19] = second compound 1 µM, first compound 0.0316 µM
[20] = second compound 1 µM, first compound 0.1 µM
[21] = second compound 1 µM, first compound 0.316 µM
[22] = second compound 1 µM, first compound 1 µM
[23] = second compound 1 µM, first compound 3.16 µM
[24] = second compound 1 µM, first compound 10 µM
[25] = second compound 3.16 µM, first compound 0.0316 µM
[26] = second compound 3.16 µM, first compound 0.1 µM
[27] = second compound 3.16 µM, first compound 0.316 µM
[28] = second compound 3.16 µM, first compound 1 µM
[29] = second compound 3.16 µM, first compound 3.16 µM
[30] = second compound 3.16 µM, first compound 10 µM
[31] = second compound 10 µM, first compound 0.0316 µM
[32] = second compound 10 µM, first compound 0.1 µM
[33] = second compound 10 µM, first compound 0.316 µM
[34] = second compound 10 µM, first compound 1 µM
[35] = second compound 10 µM, first compound 3.16 µM
[36] = second compound 10 µM, first compound 10 µM

CCn1c(-c2cc(N3CCN(C)CC3)cnc2C(C)OC)c2c3cc(ccc31)-c1csc(n1)CC(NC(=O)C1CC1C)C(=O)N1CCCC(N1)C(=O)OCC(C)(C)C2 (centres undefined)
inactive: viability, T/C (compound 0.000949 µM) 102% [middle of 8 runs] | viability, T/C (compound 0.003 µM) 101% [middle of 8 runs] | viability, T/C (compound 0.00949 µM) 116% [middle of 8 runs]
active: viability, T/C (compound 0.0949 µM) 5.7% [middle of 8 runs] | viability, T/C (compound 0.3 µM) 3.64% [middle of 8 runs]
31.5 nM [middle of 8 runs]: IC50 (compound alone, run of 08/26/2024)

CC(C)NCC(C(=O)N1CCN(c2ncnc3c2C(C)CC3O)CC1)c1ccc(Cl)cc1 (centres undefined) + C#Cc1c(F)ccc2cc(O)cc(-c3ncc4c(N5CC6CCC(C5)N6)nc(OCC56CCCN5CC(F)C6)nc4c3F)c12
5.48: pIC50 (second compound 0.316 µM)
5.80: pIC50 (second compound 10 µM)
inactive: viability, T/C [1] 105% | viability, T/C [2] 105% | viability, T/C [3] 111% | viability, T/C [4] 102% | viability, T/C [5] 66% | viability, T/C [6] 16.3% | viability, T/C [7] 96.9% | viability, T/C [8] 105% | viability, T/C [9] 109% | viability, T/C [10] 104% | viability, T/C [11] 48.3% | viability, T/C [12] 14.1% | viability, T/C [13] 96.2% | viability, T/C [14] 101% | viability, T/C [15] 108% | viability, T/C [16] 106% | viability, T/C [17] 51.6% | viability, T/C [18] 13.6% | viability, T/C [19] 98.4% | viability, T/C [20] 101% | viability, T/C [21] 108% | viability, T/C [22] 108% | viability, T/C [23] 58% | viability, T/C [25] 97.7% | viability, T/C [26] 103% | viability, T/C [27] 107% | viability, T/C [28] 106% | viability, T/C [29] 44.2% | viability, T/C [31] 94.2% | viability, T/C [32] 92.1% | viability, T/C [33] 101% | viability, T/C [34] 67.5% | viability, T/C [35] 21.9%
5.52: pIC50 (second compound 0.1 µM)
5.55: pIC50 (second compound 3.16 µM)
5.34: pIC50 (second compound 0.0316 µM)
active: viability, T/C [24] 7.88% | viability, T/C [30] 9.12% | viability, T/C [36] 2.52%
5.42: pIC50 (second compound 1 µM)

CCc1c2c(nc3ccc(O)cc13)-c1cc3c(c(=O)n1C2)COC(=O)[C@]3(O)CC + CCn1c(-c2cccnc2C(C)OC)c2c3cc(ccc31)N1CCOC(CC(NC(=O)C(C(C)C)N(C)C(=O)C3(F)CCN(C(=O)C#CC(C)(C)N(C)C)CC3)C(=O)N3CCCC(N3)C(=O)OCC(C)(C)C2)C1
8.84: pIC50 (second compound 0.003 µM)
active: viability, T/C (second compound 0.000949 µM, first compound 0.003 µM) 2.65% | viability, T/C (second compound 0.000949 µM, first compound 0.00949 µM) 1.03% | viability, T/C (second compound 0.000949 µM, first compound 0.03 µM) 1.2% | viability, T/C (second compound 0.000949 µM, first compound 0.0949 µM) 1.15% | viability, T/C (second compound 0.000949 µM, first compound 0.3 µM) 0.54% | viability, T/C (second compound 0.003 µM, first compound 0.003 µM) 3.29% | viability, T/C (second compound 0.003 µM, first compound 0.00949 µM) 1.02% | viability, T/C (second compound 0.003 µM, first compound 0.03 µM) 1.1% | viability, T/C (second compound 0.003 µM, first compound 0.0949 µM) 1.07% | viability, T/C (second compound 0.003 µM, first compound 0.3 µM) 0.54% | viability, T/C (second compound 0.00949 µM, first compound 0.003 µM) 2.82% | viability, T/C (second compound 0.00949 µM, first compound 0.00949 µM) 0.87% | viability, T/C (second compound 0.00949 µM, first compound 0.03 µM) 1.06% | viability, T/C (second compound 0.00949 µM, first compound 0.0949 µM) 1.05% | viability, T/C (second compound 0.00949 µM, first compound 0.3 µM) 0.47% | viability, T/C (second compound 0.03 µM, first compound 0.003 µM) 1.48% | viability, T/C (second compound 0.03 µM, first compound 0.00949 µM) 0.74% | viability, T/C (second compound 0.03 µM, first compound 0.03 µM) 0.96% | viability, T/C (second compound 0.03 µM, first compound 0.0949 µM) 0.84% | viability, T/C (second compound 0.03 µM, first compound 0.3 µM) 0.42% | viability, T/C (second compound 0.0949 µM, first compound 0.003 µM) 1.38% | viability, T/C (second compound 0.0949 µM, first compound 0.00949 µM) 0.98% | viability, T/C (second compound 0.0949 µM, first compound 0.03 µM) 0.71% | viability, T/C (second compound 0.0949 µM, first compound 0.0949 µM) 0.87% | viability, T/C (second compound 0.0949 µM, first compound 0.3 µM) 0.47% | viability, T/C (second compound 0.3 µM, first compound 0.003 µM) 1.54% | viability, T/C (second compound 0.3 µM, first compound 0.00949 µM) 0.75% | viability, T/C (second compound 0.3 µM, first compound 0.03 µM) 0.83% | viability, T/C (second compound 0.3 µM, first compound 0.0949 µM) 0.84% | viability, T/C (second compound 0.3 µM, first compound 0.3 µM) 0.44%
inactive: viability, T/C (second compound 0.000949 µM, first compound 0.000949 µM) 72.7% | viability, T/C (second compound 0.003 µM, first compound 0.000949 µM) 77% | viability, T/C (second compound 0.00949 µM, first compound 0.000949 µM) 70.4% | viability, T/C (second compound 0.03 µM, first compound 0.000949 µM) 74.8% | viability, T/C (second compound 0.0949 µM, first compound 0.000949 µM) 63.8% | viability, T/C (second compound 0.3 µM, first compound 0.000949 µM) 48.2%
8.87: pIC50 (second compound 0.00949 µM)
8.85: pIC50 (second compound 0.03 µM)
> 9.02: pIC50 (second compound 0.3 µM)
8.86: pIC50 (second compound 0.000949 µM)
8.91: pIC50 (second compound 0.0949 µM)

NC1c2ccccc2OC12CCN(c1cnc3c(N4CCCc5ncccc54)n[nH]c3n1)CC2 (centres undefined) + C#Cc1c(F)ccc2cc(O)cc(-c3ncc4c(N5CC6CCC(C5)N6)nc(OCC56CCCN5CC(F)C6)nc4c3F)c12
inactive: viability, T/C [1] 100% | viability, T/C [2] 91.8% | viability, T/C [3] 104% | viability, T/C [4] 100% | viability, T/C [5] 104% | viability, T/C [6] 70.2% | viability, T/C [7] 95.9% | viability, T/C [8] 98% | viability, T/C [9] 101% | viability, T/C [10] 101% | viability, T/C [11] 105% | viability, T/C [12] 64.8% | viability, T/C [13] 99.2% | viability, T/C [14] 97.4% | viability, T/C [15] 105% | viability, T/C [16] 99.8% | viability, T/C [17] 104% | viability, T/C [18] 67.8% | viability, T/C [19] 98.3% | viability, T/C [20] 96.5% | viability, T/C [21] 106% | viability, T/C [22] 106% | viability, T/C [23] 99.7% | viability, T/C [24] 67.2% | viability, T/C [25] 96.3% | viability, T/C [26] 98.7% | viability, T/C [27] 99% | viability, T/C [28] 101% | viability, T/C [29] 103% | viability, T/C [30] 59.5% | viability, T/C [31] 95.9% | viability, T/C [32] 94.7% | viability, T/C [33] 98.6% | viability, T/C [34] 97.3% | viability, T/C [35] 82.1% | viability, T/C [36] 53.6%
< 5.00: pIC50 (second compound 0.0316 µM) | pIC50 (second compound 0.1 µM) | pIC50 (second compound 0.316 µM) | pIC50 (second compound 1 µM) | pIC50 (second compound 3.16 µM) | pIC50 (second compound 10 µM)

CC1(O)CCCC1n1c(=O)c(C(F)F)cc2cnc(NC3CCN(S(C)(=O)=O)CC3)nc21 (centres undefined) + C#Cc1c(F)ccc2cc(O)cc(-c3ncc4c(N5CC6CCC(C5)N6)nc(OCC56CCCN5CC(F)C6)nc4c3F)c12
6.72: pIC50 (second compound 0.0316 µM) | pIC50 (second compound 0.1 µM)
active: viability, T/C [3] 5.76% | viability, T/C [4] 10.1% | viability, T/C [5] 3.99% | viability, T/C [6] 0.89% | viability, T/C [9] 5.96% | viability, T/C [10] 11.6% | viability, T/C [11] 3.51% | viability, T/C [12] 0.63% | viability, T/C [15] 6.91% | viability, T/C [16] 13.5% | viability, T/C [17] 4.01% | viability, T/C [18] 0.21% | viability, T/C [21] 6.21% | viability, T/C [22] 11.2% | viability, T/C [23] 3.72% | viability, T/C [24] 0.45% | viability, T/C [27] 6% | viability, T/C [28] 12.5% | viability, T/C [29] 2.73% | viability, T/C [30] 0.21% | viability, T/C [34] 11.6% | viability, T/C [35] 3.3% | viability, T/C [36] 0.45%
6.74: pIC50 (second compound 3.16 µM)
inactive: viability, T/C [1] 112% | viability, T/C [2] 106% | viability, T/C [7] 104% | viability, T/C [8] 108% | viability, T/C [13] 105% | viability, T/C [14] 112% | viability, T/C [19] 107% | viability, T/C [20] 109% | viability, T/C [25] 114% | viability, T/C [26] 99% | viability, T/C [31] 97.9% | viability, T/C [32] 51.8% | viability, T/C [33] 10.6%
6.98: pIC50 (second compound 10 µM)
6.71: pIC50 (second compound 0.316 µM) | pIC50 (second compound 1 µM)
